Measurements published in US20250002470A1, “NITROGEN-CONTAINING COMPOUND, PREPARATION METHOD THEREFOR AND APPLICATION THEREOF” (ZHEJIANG AIXPLORER BIOTECH CO., LTD., priority 2021, published 2025).

Key:
[1] = target: T1, NLRP3 (Homo sapiens, UniProt Q96P20); assay: IL-1β (interleukin-1β) secretion in IFN-γ-differentiated, LPS/ATP-stimulated THP-1 cells (half inhibition rate of NLRP3); assay type: cell-based; conditions: IFN-γ 25 ng/mL, LPS 50 ng/mL, ATP 5 mM
T1 construct: endogenous in cells; host or cells: THP-1 cells (IFN-γ differentiated, LPS primed, ATP stimulated)
Procedure, shortened: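 IFN-γ-differentiated THP-1 cells primed with LPS (final 50 ng/mL, 4 h, serum-free), then given compound for 1 h and ATP (final 5 mM) for 1 h at 37 °C. Secreted IL-1β in supernatant quantified by sandwich ELISA (mAb Mt175 capture, biotinylated mAb7P10 detection, streptavidin-HRP/TMB, 450 nm).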

[2] = Safety investigation, oral administration to SD rats for 14 consecutive days; conditions: 14 days
[3] = tested on: IL-1β; assay: IL-1β cytokine in LPS-induced sepsis mouse model; assay type: in vivo, C57BL/6J mice; conditions: for IL-1β: given 30 minutes before LPS (10 mg/kg i.p.), serum 2 hours after LPS
Protocol: The purpose of this study was to investigate and evaluate the inhibitory effect of the test compound on […] and IL-18 cytokine production in a mouse model of lipopolysaccharide (LPS)-induced sepsis.
6-8 weeks female C57BL/6J mice, randomized, 5 animals in the Naïve group, and the rest of the groups (vehicle group, 15 mg/kg group with embodiment 33 compound, 50 mg/kg group with embodiment 33 compound and 150 mg/kg group with embodiment 33 compound, wherein 15 mg/kg, 50 mg/kg and 150 mg/kg is the dosage of embodiment 33, mg/kg is referred to as mpk) 10 animals per group. Among them, the Naïve group was not stimulated with LPS, and the 10 mice in each group were intraperitoneally injected with LPS (10 mg/kg) to induce sepsis model in the mouse. The vehicle (corresponding to the vehicle group) and the test compound (corresponding to the 15mpk group of Example 33, the 50mpk group of Example 33 and the 150mpk group of Example 33 respectively) were administered 30 minutes before LPS stimulation. 2 hours after LPS stimulation, the mice were euthanized, and whole blood was collected from the heart and placed in EP tubes, left to stand at room temperature for 1 hour, and centrifuged at 8000 rpm for 10 minutes to collect serum for measurement of cytokines IL-10 and IL-18.
For the standard pellet in the IL-10 cytokine CBA kit, put the IL-10 standard pellet into a 15 mL centrifuge tube, add 4 mL of Assay Diluent, and let it stand at room temperature for more than 15 minutes; • After the supernatant sample is melted and mixed evenly, the supernatant is diluted 2 times; • Preparation of standard reagent: Add the diluent Assay Diluent in advance to the 96-well V-shaped bottom plate, 100 μL/well. Add 200 μL of the standard that has been left to stand for 15 minutes into the well plate, and add 100 μL each time to the diluent in sequence. Gradually dilute the standard to 11 gradients (double dilution each time). The 12th hole is used as Blank, 200 μL/well; • Preparation of Capture beads reagent: Take the capture beads in the IL-10 cytokine CBA kit and vortex for 30 seconds. Prepare the Beads as follows: 60 μL IL-10 beads+2440 μL capture beads diluent (60 wells); mix evenly, 50 μL/well, add it to a […] V-bottom plate; shake at 200 g for 5 minutes, and incubate at room temperature for 1 hour; • Preparation of Detection reagent: Take the PE Detection from the IL-10 cytokine CBA kit and vortex for 30 seconds. Prepare the PE as follows: 60 μL IL-10 Detection+2440 μL PE detection diluent; mix evenly. […]

T1 sequence (Q96P20 whole entry): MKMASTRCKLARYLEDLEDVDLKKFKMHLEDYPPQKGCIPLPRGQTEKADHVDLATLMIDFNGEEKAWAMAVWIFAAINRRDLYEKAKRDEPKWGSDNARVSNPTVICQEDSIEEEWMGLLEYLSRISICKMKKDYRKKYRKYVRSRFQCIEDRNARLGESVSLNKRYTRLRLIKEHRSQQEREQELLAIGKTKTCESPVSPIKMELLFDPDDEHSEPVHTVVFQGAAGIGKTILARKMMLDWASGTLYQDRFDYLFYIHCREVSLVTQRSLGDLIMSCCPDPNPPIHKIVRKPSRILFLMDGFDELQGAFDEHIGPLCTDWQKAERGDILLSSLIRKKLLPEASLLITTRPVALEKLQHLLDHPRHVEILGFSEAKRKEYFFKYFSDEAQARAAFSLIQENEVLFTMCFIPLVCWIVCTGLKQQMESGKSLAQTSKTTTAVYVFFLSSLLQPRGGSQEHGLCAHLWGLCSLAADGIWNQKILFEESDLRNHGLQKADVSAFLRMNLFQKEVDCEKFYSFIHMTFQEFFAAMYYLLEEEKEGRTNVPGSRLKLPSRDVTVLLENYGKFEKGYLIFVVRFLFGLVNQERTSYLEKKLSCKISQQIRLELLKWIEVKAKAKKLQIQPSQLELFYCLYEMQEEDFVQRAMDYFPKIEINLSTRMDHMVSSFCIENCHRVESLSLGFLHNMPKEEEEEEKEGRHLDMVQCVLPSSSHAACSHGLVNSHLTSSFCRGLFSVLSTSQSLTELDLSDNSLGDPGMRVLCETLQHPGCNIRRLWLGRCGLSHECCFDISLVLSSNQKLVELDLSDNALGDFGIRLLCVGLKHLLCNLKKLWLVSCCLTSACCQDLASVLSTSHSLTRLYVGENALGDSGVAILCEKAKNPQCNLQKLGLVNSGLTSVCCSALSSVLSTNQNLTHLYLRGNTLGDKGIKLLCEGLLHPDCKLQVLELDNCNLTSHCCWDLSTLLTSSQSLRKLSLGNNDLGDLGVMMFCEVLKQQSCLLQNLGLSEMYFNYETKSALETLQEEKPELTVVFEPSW

With `Cc1nc(N[C@@H]2CCCC[C@H]2O)nnc1-c1ccc(C(F)(F)F)cc1O` [Embodiment 33] the IC50 [1] was 5.8 nM, the “dose without any toxic effects” value [2] was at most 2000 mg/kg and the IL-1β ([3]; 15 mpk) was 310.1 ± 32.88. For the same compound, the IL-1β ([3]; 50 mpk) was 213.4 ± 25.66, the IL-1β ([3]; 150 mpk) was 19.36 ± 5.166 and the “inhibitory effect on IL-1β compared with the Vehicle group” value ([3]; three dose groups (15, 50, 150 mg/kg)) was “significant inhibitory effect”.
